Results: article PMC5645361, “Expression and function of Abcg4 in the mouse blood-brain barrier: role in restricting the brain entry of amyloid-β peptide” (Scientific Reports, 2017)
Read-outs that look alike come from different tables or passages of the source.

Columns and labels:
[1] = system: Abcg4; assay: In situ brain perfusion (ISBP): brain uptake clearance of tritiated tracers at the luminal BBB, WT and Abcg4-KO mice
Protocol: (§1) The function of Abcg4 at the mouse BBB was evaluated by using the in situ brain perfusion (ISBP) technique. This method was developed to study drug transport processes occurring at the luminal side of the BCECs[40],[41] and can be used to measure transport parameters, including the brain volume of distribution and the brain uptake clearance (Clup) of a target molecule over very short periods (30–120 s). The resulting Clup integrates the effect of enhancing or limiting factors introduced by the transporters located at the luminal side of BCECs. This method allows for measurement of the initial brain uptake of molecules, which results from both the influx and the efflux mechanisms involved in their transport. One of the advantages of this technique is the ability to administer inhibitors, or to use transporter deficient mice, in order to modulate function at the luminal side of the BBB.
(§2) Mice were anesthetized by intra-peritoneal injection of a mixture of ketamine and xylazine at 140:8 mg/kg. The right common carotid artery was ligated on the heart side and the right external carotid artery was ligated at the level of the bifurcation. A catheter was inserted into the right common carotid artery. The perfusion liquid was contained in a syringe placed in an infusion pump and connected to the catheter. Before the perfusion, the thorax of the animal was opened, the heart was removed and perfusion started immediately at flow of 2.5 mL/min. The perfusion fluid was Krebs bicarbonate-buffered physiological saline (128 mM NaCl, 24 mM NaHCO3, 4.2 mM KCl, 2.4 NaH2PO4, 1.5 mM CaCl2, 0.9 mM MgCl2 and 9 mM D-glucose).The solution was gassed with 95% O2−5% CO2 to bring the pH to 7.40 and warmed to 37 °C in water bath. Each mouse was perfused for 60 s with [^3H]Aβ1–40 (0.2 µCi/mL) or [^3H]desmosterol (0.2 µCi/mL). [^14C]sucrose was used as a vascular marker of the physical integrity of the BBB and co-perfused with the tritiated substrate. The brain uptake of tritiated tracers was also measured in the presence of unlabeled substrates [probucol 10 µM, desmosterol 20 µM orT4 10 µM], dissolved in their respective vehicles [DMSO ( < 0.5% in final perfusion fluid) or H2O/NaOH]. The experiment was terminated by decapitating the mouse. The right cerebral hemisphere and aliquots of the perfusion fluid were sampled in tared vials, weighted, digested in 2 mL of Solvable® solubilizer (PerkinElmer, Courtaboeuf, France) at 50 °C and mixed with 9 mL of Ultima Gold XR® scintillation cocktail (PerkinElmer). Labeled compounds were counted on a Tri-Carb® (PerkinElmer) counter with the appropriate dual (^14C/^3H) quenching curves and standards to measure disintegration per minute (dpm) in samples.
(§3) The brain uptake clearance (Clup, µL/g) is the ratio between the apparent tissue distribution volume (Vbrain, µL/g) of [^3H]Aβ1–40 or [^3H]desmosterol and the perfusion time (s). The Vbrain was calculated from the amount of radioactivity in the right brain hemisphere using the following equation: Vbrain=Xbrain/Cperf where Xbrain (dpm/g) is the calculated amount of tritiated tracer in the right cerebral parenchyma and Cperf (dpm/µL) is the concentration of tritiated tracer in the perfusion fluid. Xbrain is obtained by this equation: Xbrain=Xtot−(Vvasc×Cperf) where Xtot (dpm/g) is the total amount of tritiated tracer measured in the brain tissue sample (vascular and extravascular).

[2] = biological target: T1, Abcg4 (Mus musculus, UniProt Q91WA9); assay: as above; conditions: WT mice, 60 s perfusion
Protocol: as §1, §2, §3

[3] = biological target: T1, Abcg4; assay: Abcg4-mediated Aβ transport/efflux in HEK-Abcg4 transfected cells; format: cell-based; conditions: data not shown
Text: Abcg4 monomers come together to form a homodimer that includes nearly identical binding clefts which are opposite one another on the dimer surface. The homology model is an approximation of the dimer structure frozen in time which fails to capture the dynamic nature of protein motions. In vivo it is likely that nucleotide binding changes the overall configuration of the dimer to allow for sterol binding on one side of the complex followed by translocation of sterol to the dimer core before being exported from the membrane. One consequence of this movement could be that only one sterol-binding site exists at a given time. Thus, sterol binding would alternate from one binding site to the other as sterols are translocated. This mechanism could explain why the homology model has a single sterol-binding site despite the presence of two nearly identical binding clefts. […] Abcg4 seems to have two Aβ binding sites which agrees with our previous data that percent efflux of Aβ was greater than cholesterol[18] and with our current data that desmosterol competes with Aβ efflux. Furthermore, we previously measured, in HEK-Abcg4 transfected cells, the velocity of Aβ transport by Abcg4 as a function of [^3H]Aβ1-40 concentrations. […]

[4] = biological target: T1, Abcg4; design: Wild-type C57BL/6 and Abcg4-KO mice had free access to standard laboratory food and water; from tissue; host or cells: brain capillary endothelial cells of living C57BL/6 mice (in situ brain perfusion); conditions: HEK-Abcg4 transfected cells; cited from earlier work
Text: We had shown previously that a probucol- and T4-sensitive transporter, different from Abca1, Abcb1 and Abcg2, restricted the brain entry of [^3H]Aβ1-40 through the mouse BBB[18],[43].

[5] = system: Abcb1 and Abcg2; conditions: brain efflux index (BEI) method; cited from earlier work
[6] = mouse, in vivo
Protocol: Mice were anesthetized by intra-peritoneal injection of a mixture of ketamine and xylazine at 140:8 mg/kg. The right common carotid artery was ligated on the heart side and the right external carotid artery was ligated at the level of the bifurcation. A catheter was inserted into the right common carotid artery. The perfusion liquid was contained in a syringe placed in an infusion pump and connected to the catheter. Before the perfusion, the thorax of the animal was opened, the heart was removed and perfusion started immediately at flow of 2.5 mL/min. […] The brain uptake of tritiated tracers was also measured in the presence of unlabeled substrates [probucol 10 µM, desmosterol 20 µM orT4 10 µM], dissolved in their respective vehicles [DMSO ( < 0.5% in final perfusion fluid) or H2O/NaOH]. […] Labeled compounds were counted on a Tri-Carb® (PerkinElmer) counter with the appropriate dual (^14C/^3H) quenching curves and standards to measure disintegration per minute (dpm) in samples.
The brain uptake clearance (Clup, µL/g) is the ratio between the apparent tissue distribution volume (Vbrain, µL/g) of [^3H]Aβ1–40 or [^3H]desmosterol and the perfusion time (s). […] Xbrain is obtained by this equation: Xbrain=Xtot−(Vvasc×Cperf) where Xtot (dpm/g) is the total amount of tritiated tracer measured in the brain tissue sample (vascular and extravascular).

[7] = system: Abcb1; design: method as in PMID 11181832; conditions: read-out: Km of Aβ reported for Abcb1; cited from earlier work
[8] = system: Abcg4; conditions: mouse, in vivo
Protocol: as §1, §2, §3

[9] = Abcg4-KO mice, T4 10 µM, 60 s perfusion, 5–8 mice
[10] = T4 10 µM in perfusion buffer, means of 5–8 mice
[11] = Abcg4-KO mice, probucol 10 µM, 60 s perfusion, 8–9 mice

T1 sequence (Q91WA9 whole entry, the tested form may be a part): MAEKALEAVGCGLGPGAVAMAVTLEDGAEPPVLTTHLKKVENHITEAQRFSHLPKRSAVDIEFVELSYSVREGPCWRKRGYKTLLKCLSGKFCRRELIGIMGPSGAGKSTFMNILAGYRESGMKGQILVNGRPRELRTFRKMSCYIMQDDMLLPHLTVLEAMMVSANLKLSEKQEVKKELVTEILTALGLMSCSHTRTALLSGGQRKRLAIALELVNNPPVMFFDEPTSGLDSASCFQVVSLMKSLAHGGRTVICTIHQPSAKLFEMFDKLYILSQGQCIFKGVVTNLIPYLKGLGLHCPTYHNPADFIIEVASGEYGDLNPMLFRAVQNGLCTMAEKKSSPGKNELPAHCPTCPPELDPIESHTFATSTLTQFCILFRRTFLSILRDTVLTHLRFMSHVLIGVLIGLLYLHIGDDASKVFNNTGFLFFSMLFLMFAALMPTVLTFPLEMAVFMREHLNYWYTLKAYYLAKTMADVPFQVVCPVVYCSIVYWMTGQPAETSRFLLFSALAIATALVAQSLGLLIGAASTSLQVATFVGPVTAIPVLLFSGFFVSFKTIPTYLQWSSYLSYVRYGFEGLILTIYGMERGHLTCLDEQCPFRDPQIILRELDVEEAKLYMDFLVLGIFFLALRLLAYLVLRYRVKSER

N[C@@H](Cc1cc(I)c(Oc2cc(I)c(O)c(I)c2)c(I)c1)C(=O)O [T4, L-thyroxine]
Effect of T4 on [3H]Aβ1–40 Clup [1, 9]: this effect was lost | Effect of T4 on [3H]desmosterol Clup [1, 9]: this effect was lost | Increase of [3H]Aβ1–40 Clup in the presence vs absence of T4 (ER T4/ctrl) [2, 10]: 2 fold | Increase of [3H]desmosterol Clup in the presence vs absence of T4 (ER T4/ctrl) [2, 10]: 1.8 fold | Inhibition of Abcg4-mediated Aβ efflux [3]: 5.8 fold

CC(C)=CCC[C@@H](C)[C@H]1CC[C@H]2[C@@H]3CC=C4C[C@@H](O)CC[C@]4(C)[C@H]3CC[C@]12C [desmosterol]
Effect of desmosterol on [3H]Aβ1-40 Clup ([1]; Abcg4-KO mice, desmosterol 20 µM, 60 s perfusion, 5–7 mice): no significant effect | Time course of brain volume of distribution (Vbrain) as a function of perfusion time ([1]; WT C57BL/6 mice, right hemisphere, in situ brain perfusion, 3 animals per data point, r2 = 0.944): linear increase | Brain uptake clearance (Clup) in Abcg4-KO mice compared with WT mice ([1]; in situ brain perfusion, 60 s, tracer 0.2 µCi/mL, absence of probucol, 8–9 mice, two-way ANOVA, Bonferroni): not significantly different | Increase of [3H]Aβ1-40 Clup in the presence vs absence of desmosterol (ER desmosterol/ctrl) ([2]; desmosterol 20 µM in perfusion buffer, means of 5–7 mice): 1.8 fold

CC(C)(Sc1cc(C(C)(C)C)c(O)c(C(C)(C)C)c1)Sc1cc(C(C)(C)C)c(O)c(C(C)(C)C)c1 [probucol]
Effect of probucol on [3H]Aβ1–40 Clup [1, 11]: this effect was lost | Effect of probucol on [3H]desmosterol Clup [1, 11]: this effect was lost | Increase of [3H]desmosterol Clup in the presence vs absence of probucol (ER probucol/ctrl) ([2]; probucol 10 µM in perfusion fluid, [3H]desmosterol 0.2 µCi/mL, Krebs bicarbonate pH 7.40, 37 °C, means of 8–9 mice): 1.8 fold | Increase of [3H]Aβ1–40 Clup in the presence vs absence of probucol (ER probucol/ctrl) ([2]; probucol 10 µM, [3H]Aβ1–40 0.2 µCi/mL, pH 7.40, 37 °C, means of 8–9 mice): 2.1 fold | Inhibition of Abcg4-mediated Aβ efflux [4]: 2 fold

CNC(=O)c1cc(Oc2ccc(NC(=O)Nc3ccc(Cl)c(C(F)(F)F)c3)cc2)ccn1 [sorafenib]
Brain clearance in Mdr1a/b−/− mice compared with WT mice [5]: the same | Decrease of brain clearance in Abcb1/Abcg2-deficient mice [5]: 2.5 fold | Decrease of brain clearance in Abcg2-deficient mice [5]: 2 fold

OC[C@H]1O[C@@](CO)(O[C@H]2O[C@H](CO)[C@@H](O)[C@H](O)[C@H]2O)[C@@H](O)[C@@H]1O [sucrose]
Brain vascular volume (Vvasc), distribution volume of [14C]sucrose [6]: under 20 µL/g

Aβ1–40: amyloid-β peptide, 40 amino-acid form, used tritiated as transport tracer
Km [7]: 12.5 µM | Brain uptake clearance (Clup) in Abcg4-KO mice compared with WT mice [8]: not significantly different
